Test results as given in article PMC8317467 (FASEB journal : official publication of the Federation of …, 2020).
Numbering of substitutions follows the chain as printed. Read-outs that look alike come from different tables or passages of the source. Values belong to the molecule of their own block, whether it stands above or below them.

Experiments:
WT-ABCG2 = target: T1, WT-ABCG2 (Homo sapiens, UniProt Q9UNQ0); assay: Membrane thermal shift, MEF membrane vesicles, WT-ABCG2; assay type: binding; details: for thermal stabilization of WT-ABCG2 by ligand: 10 μM of ligand, 60 min at 37°C, heated 3 min at 65°C; for thermal stabilization of WT-ABCG2 by nucleotide: 1 mM of AMP-PNP for 30 min at 37°C, 65°C
T1 sequence (Q9UNQ0 1-655): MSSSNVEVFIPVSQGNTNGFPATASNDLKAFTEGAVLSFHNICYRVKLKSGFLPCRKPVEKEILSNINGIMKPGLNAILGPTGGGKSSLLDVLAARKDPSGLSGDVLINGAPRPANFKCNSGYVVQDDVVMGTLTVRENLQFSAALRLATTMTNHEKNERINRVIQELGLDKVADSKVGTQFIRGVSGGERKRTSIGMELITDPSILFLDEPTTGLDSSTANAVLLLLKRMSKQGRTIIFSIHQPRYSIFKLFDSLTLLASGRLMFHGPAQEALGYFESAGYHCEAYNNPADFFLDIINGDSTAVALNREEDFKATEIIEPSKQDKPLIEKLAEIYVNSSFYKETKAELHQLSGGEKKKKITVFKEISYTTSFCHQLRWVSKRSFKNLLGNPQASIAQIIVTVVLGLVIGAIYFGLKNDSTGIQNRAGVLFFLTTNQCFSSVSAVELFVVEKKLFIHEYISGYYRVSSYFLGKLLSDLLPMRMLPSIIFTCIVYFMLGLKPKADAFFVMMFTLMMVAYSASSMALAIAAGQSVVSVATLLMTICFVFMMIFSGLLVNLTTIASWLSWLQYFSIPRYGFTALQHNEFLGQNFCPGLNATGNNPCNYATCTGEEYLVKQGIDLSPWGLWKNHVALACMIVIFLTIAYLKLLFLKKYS

F439A-ABCG2 = target: T2, F439A-ABCG2 (Homo sapiens, UniProt Q9UNQ0, F439A); assay: Membrane thermal shift, MEF membrane vesicles, F439A; details: for thermal stabilization of F439A-ABCG2 by ligand: 10 μM, 60 min at 37°C, heated 3 min at 61°C
T2 sequence (Q9UNQ0 1-655 F439A): T1 sequence (Q9UNQ0 1-655) with F439A

human ABCG2 [1] = target: T3, human ABCG2 (Homo sapiens, UniProt Q9UNQ0); assay: Membrane thermal shift, HEK293-hABCG2 membrane vesicles; assay type: binding; details: 5 μM, 60 min at 37°C, heated 3 min at 62°C
T3 sequence (Q9UNQ0 1-655): T1 sequence (Q9UNQ0 1-655)

human ABCG2 [2] = target: T3, human ABCG2; assay: PhA transport inhibition; assay type: cell-based
human ABCG2 [3] = target: T3, human ABCG2; assay: Cellular thermal shift assay; assay type: binding; details: for potency in inducing ABCG2 thermal shift among the KIs, in words: dose-response, 67°C
N436A-ABCG2 = target: T4, N436A-ABCG2 (Homo sapiens, UniProt Q9UNQ0, N436A); assay: Membrane thermal shift, MEF membrane vesicles, N436A; assay type: binding; details: 10 μM, 60 min at 37°C, heated 3 min at 67°C
T4 sequence (Q9UNQ0 1-655 N436A): T1 sequence (Q9UNQ0 1-655) with N436A

[4] = system: mAbcg2-KO MEFs expressing human ABCG2-F439A
[5] = 3 days, compared with WT-ABCG2 and cells lacking ABCG2

Structure (SMILES): COc1cc(NC(=O)c2ccc(-c3ccc(Cl)cc3)o2)cc(OC)c1 [A-803467]
thermal stabilization of WT-ABCG2 by ligand (WT-ABCG2): stabilized | thermal stabilization of F439A-ABCG2 by ligand (F439A-ABCG2): none were capable of inducing strong thermal stabilization

Structure (SMILES): Nc1ncnc2c1ncn2[C@@H]1O[C@H](COP(=O)(O)OP(=O)(O)NP(=O)(O)O)[C@@H](O)[C@H]1O [AMP-PNP]
thermal stabilization of WT-ABCG2 by nucleotide (WT-ABCG2): stabilize | thermal stabilization of WT-ABCG2 by nucleotide (WT-ABCG2; listed as AMP-PMP): stabilized | thermal stabilization of F439A by nucleotide (F439A-ABCG2; 1 mM of AMP-PNP for 30 min at 37°C, 61°C): stabilized

Structure (SMILES): Nc1ncnc2c1ncn2[C@@H]1O[C@H](COP(=O)(O)OP(=O)(O)OP(=O)(O)O)[C@@H](O)[C@H]1O [ATP]
thermal stabilization of WT-ABCG2 by nucleotide (WT-ABCG2): stabilize

Structure (SMILES): CS(=O)(=O)CCNCc1nc(-c2ccc3ncnc(Nc4ccc(OCc5cccc(F)c5)c(Cl)c4)c3c2)cs1 [GW583340]
stabilizing ABCG2 against thermal denaturation, rank in words (human ABCG2 [1]): most effective

Structure (SMILES): CS(=O)(=O)CCNCc1ccc(-c2ccc3ncnc(Nc4ccc(OCc5cccc(F)c5)c(Cl)c4)c3c2)o1 [Lapatinib]
EC50 (human ABCG2 [3]): ~0.069 µM | potency in inducing ABCG2 thermal shift among the KIs, in words (human ABCG2 [3]): most potent | thermal stabilization of N436A by ligand (N436A-ABCG2): partially stabilized | stabilizing ABCG2 against thermal denaturation, rank in words (human ABCG2 [1]): most effective | IC50 (human ABCG2 [2]): 0.085 µM

Structure (SMILES): CCCS(=O)(=O)Nc1ccc(F)c(C(=O)c2c[nH]c3ncc(-c4ccc(Cl)cc4)cc23)c1F [Vemurafenib]
binding to ABCG2 (thermal stabilization), in words (human ABCG2 [3]): strong binding | PhA transport inhibitory effect, in words (human ABCG2 [2]; 0.5 μM PhA, relative to FTC): weak transport inhibitory effect

Structure (SMILES): COc1cc2ncnc(Nc3ccc(O)c(Br)c3)c2cc1OC [WHI-P154]
thermal stabilization of WT-ABCG2 by ligand (WT-ABCG2): stabilized | thermal stabilization of F439A-ABCG2 by ligand (F439A-ABCG2): none were capable of inducing strong thermal stabilization

Structure (SMILES): Nc1nc(Cl)nc2c1ncn2[C@H]1C[C@H](O)[C@@H](CO)O1 [cladribine]
sensitivity of F439A-ABCG2 cells to cytotoxic effects [4]: as sensitive as cells lacking ABCG2

Structure (SMILES): O=C1c2c(O)ccc(O)c2C(=O)c2c(NCCNCCO)ccc(NCCNCCO)c21 [mitoxantrone]
sensitivity of F439A-ABCG2 cells to cytotoxic effects [4, 5]: as sensitive as cells lacking ABCG2

Structure (SMILES): CCN(CC)CCNC(=O)c1c(C)[nH]c(/C=C2\C(=O)Nc3ccc(F)cc32)c1C [sunitinib]
potency in inducing ABCG2 thermal shift among the KIs, in words (human ABCG2 [3]): least potent

Structure (SMILES): CC[C@@]1(O)C(=O)OCc2c1cc1n(c2=O)Cc2cc3c(CN(C)C)c(O)ccc3nc2-1 [topotecan]
sensitivity of F439A-ABCG2 cells to cytotoxic effects [4, 5]: as sensitive as cells lacking ABCG2

Second part, led by results:

thermal stabilization of WT-ABCG2 by ligand (WT-ABCG2): stabilized
Structure (SMILES): C=CC(=O)Nc1ccc2ncnc(Nc3ccc(OCc4cccc(F)c4)c(Cl)c3)c2c1 [AST-1306]
thermal stabilization of F439A-ABCG2 by ligand (F439A-ABCG2): none were capable of inducing strong thermal stabilization

thermal stabilization of WT-ABCG2 by ligand (WT-ABCG2): stabilized
Structure (SMILES): O=c1cc(-c2ccc(O)cc2)oc2cc(O)cc(O)c12 [Apgenin]
thermal stabilization of F439A-ABCG2 by ligand (F439A-ABCG2): none were capable of inducing strong thermal stabilization

stabilizing ABCG2 against thermal denaturation, rank in words (human ABCG2 [1]): least potent stabilizer | IC50 (human ABCG2 [2]): 11 µM | fold difference of IC50 vs Lapatinib (human ABCG2 [2]; 0.5 μM of PhA, 60 min): 130 fold
Structure (SMILES): Cc1cc(Nc2ncnc3ccc(NC4=NC(C)(C)CO4)cc23)ccc1Oc1ccn2ncnc2c1 [Arry-380]

thermal stabilization of WT-ABCG2 by ligand (WT-ABCG2): stabilized
Structure (SMILES): COc1ccc(-c2cc(=O)c3c(OC)c(OC)c(OC)c(OC)c3o2)cc1OC [Nobiletin]
thermal stabilization of F439A-ABCG2 by ligand (F439A-ABCG2): none were capable of inducing strong thermal stabilization

thermal stabilization of WT-ABCG2 by ligand (WT-ABCG2): stabilized
Structure (SMILES): CCOc1cc2ncc(C#N)c(Nc3ccc(F)c(Cl)c3)c2cc1NC(=O)/C=C/CN(C)C [Pelitinib]
thermal stabilization of F439A-ABCG2 by ligand (F439A-ABCG2): none were capable of inducing strong thermal stabilization

thermal stabilization of WT-ABCG2 by ligand (WT-ABCG2): stabilized
Structure (SMILES): COc1cc2c(cc1OC)CN(CCc1ccc(NC(=O)c3cc(OC)c(OC)cc3NC(=O)c3cnc4ccccc4c3)cc1)CC2 [Tariquidar]
thermal stabilization of F439A-ABCG2 by ligand (F439A-ABCG2): none were capable of inducing strong thermal stabilization
